Tests used:
[1] = molecular target: GDP-bound NRAS wild-type protein (Homo sapiens, UniProt P01111); assay: Binding to NRAS by surface plasmon resonance (SPR), Single Cycle Kinetics; conditions: SPR, GDP-bound NRAS wild-type vs GDP-bound KRAS wild-type
[2] = molecular target: GDP-bound HRAS wild-type protein (Homo sapiens, UniProt P01112); assay: Binding to HRAS by surface plasmon resonance (SPR), Single Cycle Kinetics; conditions: SPR, GDP-bound HRAS wild-type vs GDP-bound KRAS wild-type
Chain of GDP-bound HRAS wild-type protein (P01112 whole entry): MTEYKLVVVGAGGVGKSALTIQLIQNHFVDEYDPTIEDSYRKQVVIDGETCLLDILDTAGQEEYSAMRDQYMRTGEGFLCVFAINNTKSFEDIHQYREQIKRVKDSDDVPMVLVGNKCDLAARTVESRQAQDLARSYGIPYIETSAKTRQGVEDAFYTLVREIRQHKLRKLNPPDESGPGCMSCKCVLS

Chain of GDP-bound NRAS wild-type protein (P01111 whole entry): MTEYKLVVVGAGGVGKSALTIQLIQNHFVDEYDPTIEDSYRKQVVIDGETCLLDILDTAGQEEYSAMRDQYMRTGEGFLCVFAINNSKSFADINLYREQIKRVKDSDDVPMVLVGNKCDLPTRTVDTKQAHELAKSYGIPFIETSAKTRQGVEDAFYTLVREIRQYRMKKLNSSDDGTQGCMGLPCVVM

| SMILES | NRAS/KRAS (ratio of KD value with respect to NRAS to KD value with respect to KRAS) [1] | HRAS/KRAS (ratio of KD value with respect to HRAS to KD value with respect to KRAS) [2] |
| --- | --- | --- |
| CCC[C@H]1C(=O)N[C@@H]([C@H](C)CC)C(=O)N(C)CC(=O)N(C)[C@H]2C/C=C\CCN(C2=O)[C@@H](Cc2ccc(C)cc2)C(=O)N(C)CC(=O)N[C@@H](CCc2ccc(C(F)(F)F)c(Cl)c2)C(=O)N2C[C@H](OCC)C[C@H]2C(=O)NC2(CC(C)(C)C2)C(=O)N(C)[C@@H](C2CCCC2)C(=O)N(C)[C@H](C(=O)N(C)C)CC(=O)N1C [PP2221] | A (a compound having 10 or more and less than 20 is denoted as A) | A (a compound having 10 or more and less than 20 is denoted as A) |
| CC[C@H](C)[C@@H]1NC(=O)[C@H](CC(C)C)N(C)C(=O)C[C@@H](C(=O)N(C)C)N(C)C(=O)[C@H](C2CCCC2)N(C)C(=O)C2(CC(C)(C)C2)NC(=O)[C@@H]2C[C@@H](C)CN2C(=O)[C@H](CCc2cc(F)c(C(F)(F)F)c(F)c2)NC(=O)CN(C)C(=O)[C@H](Cc2ccc(C)cc2)N2CC/C=C\C[C@@H](C2=O)N(C)C(=O)CN(C)C1=O [PP2223] | A (a compound having 10 or more and less than 20 is denoted as A) | A (a compound having 10 or more and less than 20 is denoted as A) |
| CCC[C@H]1C(=O)N[C@@H]([C@@H](C)CC)C(=O)N(C)CC(=O)N(C)[C@H]2C/C=C\CCN(C2=O)[C@@H](Cc2ccc(C)cc2)C(=O)N(C)CC(=O)N[C@@H](CCc2ccc(C(F)(F)F)c(Cl)c2)C(=O)N2C[C@H](OCC)C[C@H]2C(=O)NC2(CC(C)(C)C2)C(=O)N(C)[C@@H](CC(C)C)C(=O)N(C)[C@H](C(=O)N(C)C)CC(=O)N1C [PP2224] | A (a compound having 10 or more and less than 20 is denoted as A) | A (a compound having 10 or more and less than 20 is denoted as A) |
| CCCOC[C@H]1C(=O)N[C@@H]([C@@H](C)CC)C(=O)N(C)CC(=O)N(C)[C@H]2C/C=C\CCN(C2=O)[C@@H](Cc2ccc(C)cc2)C(=O)N(C)CC(=O)N[C@@H](CCc2cc(F)c(C(F)(F)F)c(F)c2)C(=O)N2C[C@H](C)C[C@H]2C(=O)NC2(CCCC2)C(=O)N(C)[C@@H](C2CCCC2)C(=O)N(C)[C@H](C(=O)N(C)C)CC(=O)N1C [PP2225] | A (a compound having 10 or more and less than 20 is denoted as A) | A (a compound having 10 or more and less than 20 is denoted as A) |
| CCC[C@H]1C(=O)N[C@@H]([C@@H](C)CC)C(=O)N(C)CC(=O)N(C)[C@H]2C/C=C\CCN(C2=O)[C@@H](Cc2ccc(C)cc2)C(=O)N(C)CC(=O)N[C@@H](CCc2ccc(C(F)(F)F)c(Cl)c2)C(=O)N2C[C@H](OCC)C[C@H]2C(=O)NC2(CC(C)(C)C2)C(=O)N(C)[C@@H](CC(F)(F)F)C(=O)N(C)[C@H](C(=O)N(C)C)CC(=O)N1C [PP2226] | A (a compound having 10 or more and less than 20 is denoted as A) | A (a compound having 10 or more and less than 20 is denoted as A) |
| CCC[C@@H]1C[C@H]2C(=O)NC3(CCCC3)C(=O)N(C)[C@@H](C3CCCC3)C(=O)N(C)[C@H](C(=O)N(C)C)CC(=O)N(C)[C@@H](CC)C(=O)N[C@@H]([C@@H](C)CC)C(=O)N(C)CC(=O)N(C)[C@H]3C/C=C\CCN(C3=O)[C@@H](Cc3ccc(C)cc3)C(=O)N(C)CC(=O)N[C@@H](CCc3cc(F)c(C(F)(F)F)c(F)c3)C(=O)N2C1 [PP2227] | A (a compound having 10 or more and less than 20 is denoted as A) | A (a compound having 10 or more and less than 20 is denoted as A) |
| CCCOC[C@H]1C(=O)N[C@@H]([C@@H](C)CC)C(=O)N(C)CC(=O)N(C)[C@H]2C/C=C\CCN(C2=O)[C@@H](Cc2ccc(C)cc2)C(=O)N(C)CC(=O)N[C@@H](CCc2cc(F)c(C(F)(F)F)c(F)c2)C(=O)N2C[C@H](CCC)C[C@H]2C(=O)NC2(CCCC2)C(=O)N(C)[C@@H](C2CCCC2)C(=O)N(C)[C@H](C(=O)N(C)C)CC(=O)N1C [PP2229] | A (a compound having 10 or more and less than 20 is denoted as A) | A (a compound having 10 or more and less than 20 is denoted as A) |
| CCC[C@H]1C(=O)N[C@@H]([C@@H](C)CC)C(=O)N(C)CC(=O)N(C)[C@H]2C/C=C\CCN(C2=O)[C@@H](Cc2ccc(C)cc2)C(=O)N(C)CC(=O)N[C@@H](CCc2ccc(C(F)(F)F)c(Cl)c2)C(=O)N2C[C@H](OCC)C[C@H]2C(=O)NC2(CC(C)(C)C2)C(=O)N(C)[C@@H](CC(C)(C)C)C(=O)N(C)[C@H](C(=O)N(C)C)CC(=O)N1C [PP2230] | A (a compound having 10 or more and less than 20 is denoted as A) | A (a compound having 10 or more and less than 20 is denoted as A) |
| CCC[C@@H]1C[C@H]2C(=O)NC3(CCC3)C(=O)N(C)[C@@H](C3CCCC3)C(=O)N(C)[C@H](C(=O)N(C)C)CC(=O)N(C)[C@@H](CC(C)C)C(=O)N[C@@H]([C@@H](C)CC)C(=O)N(C)CC(=O)N(C)[C@H]3C/C=C\CCN(C3=O)[C@@H](Cc3ccc(C)cc3)C(=O)N(C)CC(=O)N[C@@H](CCc3cc(F)c(C(F)(F)F)c(F)c3)C(=O)N2C1 [PP2231] | A (a compound having 10 or more and less than 20 is denoted as A) | B (a compound having 3 or more and less than 10 is denoted as B) |
| CCCOC[C@H]1C(=O)N[C@@H]([C@@H](C)CC)C(=O)N(C)CC(=O)N(C)[C@H]2C/C=C\CCN(C2=O)[C@@H](Cc2ccc(C)cc2)C(=O)N(C)CC(=O)N[C@@H](CCc2cc(F)c(C(F)(F)F)c(F)c2)C(=O)N2C[C@H](CCC)C[C@H]2C(=O)NC2(CCC2)C(=O)N(C)[C@@H](C2CCCC2)C(=O)N(C)[C@H](C(=O)N(C)C)CC(=O)N1C [PP2232] | A (a compound having 10 or more and less than 20 is denoted as A) | A (a compound having 10 or more and less than 20 is denoted as A) |
| CCC[C@@H]1C[C@H]2C(=O)NC3(CCC3)C(=O)N(C)[C@@H](C3CCCC3)C(=O)N(C)[C@H](C(=O)N(C)C)CC(=O)N(C)[C@@H](CC)C(=O)N[C@@H]([C@@H](C)CC)C(=O)N(C)CC(=O)N(C)[C@H]3C/C=C\CCN(C3=O)[C@@H](Cc3ccc(C)cc3)C(=O)N(C)CC(=O)N[C@@H](CCc3cc(F)c(C(F)(F)F)c(F)c3)C(=O)N2C1 [PP2233] | A (a compound having 10 or more and less than 20 is denoted as A) | A (a compound having 10 or more and less than 20 is denoted as A) |
| CCCOC[C@H]1C(=O)N[C@@H]([C@@H](C)CC)C(=O)N(C)CC(=O)N(C)[C@H]2C/C=C\CCN(C2=O)[C@@H](Cc2ccc(C)cc2)C(=O)N(C)CC(=O)N[C@@H](CCc2ccc(C(F)(F)F)c(Cl)c2)C(=O)N2C[C@H](C)C[C@H]2C(=O)NC2(CC(C)(C)C2)C(=O)N(C)[C@@H](C2CCCC2)C(=O)N(C)[C@H](C(=O)N(C)C)CC(=O)N1C [PP2234] | A (a compound having 10 or more and less than 20 is denoted as A) | A (a compound having 10 or more and less than 20 is denoted as A) |
